Article PMC12396409, “Screening and hit evaluation of a microbial metabolite library against the pathogenic Plasmodium falciparum and Toxoplasma gondii parasites” (International Journal for Parasitology: Drugs and Drug …, 2025)
Read-outs that look alike come from different tables or passages of the source.

Columns and labels:
[1] = system: P. falciparum 3D7 parasites; assay: P. falciparum growth inhibition assay, 1-cycle (72 h treatment), SYBR DNA staining (library screen at 2 μg/mL and dose-response); format: cell-based, Plasmodium falciparum; conditions: P. falciparum 3D7, 72 h, library screen at 2 μg/mL, % growth; for Pf_72h_%Growth_Rep1: replicate 1; for Pf_72h_%Growth_Rep2: replicate 2
[2] = system: P. falciparum 3D7 parasites; assay: P. falciparum growth inhibition assay, 2-cycle (120 h treatment), delayed-death screen and dose-response; format: cell-based, Plasmodium falciparum; conditions: for Pf_120h_%Growth_Rep1: replicate 1
[3] = system: T. gondii RH strain (RH-Tub-eYFP) tachyzoites; assay: microbe, parasite or virus in culture; format: cell-based, Toxoplasma gondii; conditions: T. gondii RH, 72 h, library screen at 2 μg/mL, % growth; for Tg_72h_%Growth_Rep1: replicate 1; for Tg_72h_%Growth_Rep2: replicate 2
[4] = P. falciparum 3D7, 120 h, library screen at 2 μg/mL, % growth
[5] = P. falciparum 3D7, 120 h, library screen at 2 μg/mL, % growth, replicate 2

Row | SMILES | Pf_72h_%Growth_Rep1 [1] [%] | Pf_72h_%Growth_Rep2 [1] [%] | Pf_120h_%Growth_Rep1 [2, 4] [%] | Pf_120h_%Growth_Rep2 [2, 5] [%] | Tg_72h_%Growth_Rep1 [3] [%] | Tg_72h_%Growth_Rep2 [3] [%] | Pf_120h_%Growth_Rep2 [2] [%]
1 | COC(=O)C1=COC(C)C2CN3CCc4c([nH]c5cc(OC)c(OC)cc45)C3CC12 (stereo not drawn) [BIA-I1957] | 25.00 | 24.20 | 15.82 | -7.23 | 168.01 | 105.99 | –
2 | O=C1C=CC(=O)c2c(O)cccc21 [BIA-J1739] | 80.59 | 97.69 | 84.54 | 95.25 | 123.29 | 97.98 | –
3 | COC(=O)C1(O)CC2OC1(C)n1c3ccccc3c3c4c(c5c6ccccc6n2c5c31)CNC4=O (stereo not drawn) [BIA-K1225] | 4.93 | 0.48 | 29.46 | 12.07 | -1.01 | 0.85 | –
4 | COc1cc(C)c2c(OC)cc(=O)oc2c1-c1c(OC)cc(C)c2c(OC)cc(=O)oc12 [BIA-K1634] | 79.71 | 89.27 | 81.50 | 124.49 | 128.61 | 101.38 | –
5 | O=c1cc(CO)occ1O [BIA-K1696] | 83.60 | 96.29 | 76.01 | 110.07 | 111.73 | 90.68 | –
6 | Cc1c2ccocc-2oc1=O [BIA-K1791] | 78.18 | 121.18 | 94.18 | 112.81 | 112.84 | 99.08 | –
7 | O=c1cc2ccocc-2o1 [BIA-K1792] | 80.31 | 115.37 | 89.46 | 104.67 | 114.69 | 93.25 | –
8 | CCOC(=O)c1c2ccocc-2oc1=O [BIA-K1981] | 72.42 | 90.55 | 169.06 | 89.57 | 89.77 | 96.78 | –
9 | CC(C=CC1OC(=O)C=CC1C)=CC(C)CC=CC(C)=CC(C)C(=O)C(C)C(O)C(C)CC(C)=CC(=O)O (stereo not drawn) [BIA-L1045] | 49.36 | 24.76 | 60.90 | 15.41 | -0.52 | -0.11 | –
10 | CCC(C=CC1OC(=O)C=CC1C)=CC(C)CC=CC(C)=CC(C)C(=O)C(C)C(O)C(C)CC(C)=CC(=O)O (stereo not drawn) [BIA-L1046] | 6.41 | 2.57 | 2.03 | 15.00 | 1.37 | 0.53 | –
11 | COc1cc(O)c2c(c1)C=CCC(O)C(O)C(=O)C=CCC(C)OC2=O (stereo not drawn) [BIA-L1160] | 82.21 | 92.24 | 96.72 | 110.83 | 102.73 | 85.36 | –
12 | CC[C@H](C)C(=O)O[C@H]1C[C@@H](C)C=C2C=C[C@H](C)[C@H](CC[C@@H]3C[C@@H](O)CC(=O)O3)[C@H]21 [BIA-L1264] | 70.29 | 102.36 | 89.66 | – | 3.18 | 2.54 | 93.18
13 | CCCC(=O)OC1C(C)OC(OC2C(C)OC(OC3C(CC=O)CC(C)C(O)C=CC=CCC(C)OC(=O)CC(O)C3OC)C(O)C2N(C)C)CC1(C)O (stereo not drawn) [BIA-L1357] | 53.81 | 78.28 | 3.21 | 21.14 | 30.88 | 21.24 | –
14 | CCCC(=O)OC1C(C)OC(OC2C(C)OC(OC3C(CC=O)CC(C)C(O)C=CC=CCC(C)OC(=O)CC(OC(C)=O)C3OC)C(O)C2N(C)C)CC1(C)O (stereo not drawn) [BIA-L1364] | 50.48 | 43.27 | 4.30 | -1.28 | 19.43 | 27.43 | –
15 | CCCCCC(=O)OC1C(C)OC(OC2C(C)OC(OC3C(CC=O)CC(C)C(O)C=CC=CCC(C)OC(=O)CC(O)C3OC)C(O)C2N(C)C)CC1(C)O (stereo not drawn) [BIA-L1365] | 29.67 | 36.72 | 2.62 | 15.42 | 22.41 | 22.70 | –
16 | CCCC1CC(C(=O)NC(C(C)O)C2OC(SC)C(O)C(O)C2O)N(C)C1 (stereo not drawn) [BIA-L1457] | 49.27 | 59.50 | 9.59 | 18.68 | 26.67 | 42.80 | –
17 | CCC(C(=O)C(C)C(O)C(C)CCc1ccc(C)c(O)c1C(=O)O)C1OC(CC)(C2CCC(O)(CC)C(C)O2)CC1C (stereo not drawn) [BIA-L1533] | 6.55 | 4.89 | 6.55 | 19.46 | -0.84 | -0.33 | –
18 | COC1C(O)CC(=O)OC(C)CC=CC=CC(O)C(C)CC(CC=O)C1OC1OC(C)C(OC2CC(C)(O)C(OC(=O)CC(C)C)C(C)O2)C(N(C)C)C1O (stereo not drawn) [BIA-L1538] | 49.92 | 67.33 | 5.60 | 17.51 | 16.93 | 20.94 | –
19 | CCCCCC(O)C1C(=O)OC(C)C(O)C=CC=CC=CC=CC=C(C)C(O)C(O)C(O)CC(O)CC(O)CC(O)CC(O)CC1O (stereo not drawn) [BIA-L1613] | 78.48 | 58.30 | 95.83 | 112.04 | 108.01 | 85.53 | –
20 | Cc1cc(OC(=O)c2c(C)cc(O)cc2O)cc(O)c1C(=O)O [BIA-L1669] | 74.56 | 54.17 | 65.54 | 115.03 | 166.09 | 102.01 | –
21 | CC1(C)OC2CC(=O)OCC23C1CC(=O)C1(C)C3CCC2(C)C(c3ccoc3)OC(=O)C3OC321 (stereo not drawn) [BIA-L1755] | 83.85 | 113.59 | 93.20 | 110.15 | 135.94 | 85.64 | –
22 | C=C(C)[C@@H]1CC[C@]2(C)CC[C@]3(C)[C@H](CC[C@@H]4[C@@]5(C)CC[C@H](O)C(C)(C)[C@@H]5CC[C@]43C)[C@@H]12 [BIA-L1759] | 81.82 | 111.85 | 99.08 | 111.54 | 110.92 | 91.52 | –
23 | O=C1CCCC2C3CC(CN12)C1CCCCN1C3 (stereo not drawn) [BIA-L1951] | 95.10 | 93.40 | 173.37 | 101.50 | 86.61 | 107.54 | –
